The results in this text go back to patent publication US8426408B2, “Pyrimidine inhibitors of kinases” (AbbVie Inc., priority 2009, dated 2013).

One test has as its system NCI-H1299 cells. Nature of the test: Induction of polyploidy in H1299. Format: cell-based, Human. As to conditions: NCI-H1299, 48 hours; for EC15: Homo sapiens, read-out: EC15 (concentration of inhibitor necessary to induce polyploidy in 15% of cells). As for the experimental part: To determine the induction of polyploidy in H1299 cells, NCI-H1299 were seeded (4K/well) into 96-well culture plates (tissue culture grade, black, flat-clear bottom) and incubated overnight to produce cell-to-plate adherence. Inhibitors at varying concentrations were added into duplicate wells containing cells and culture media (RPMI 1640, 10% fetal calf serum) and incubated at 37 C for 48 hours. The plates were then washed with PBS and the adherent cells fixed by incubating with 3% formalin for 1 hour. After washing four times with PBS, the cells were then stained with Hoechst and subjected to fluorescent (360 i/460e) microscopic high content analysis to determine the effect of inhibitors on nuclear size. Polyploid cells (≧4N) were defined as those having nuclear area>750μ^2. Potency was expressed as the concentration of inhibitor necessary to induce polyploidy in 15% of cells (EC15) and was calculated from least squares analysis of the log dose-response.

A further test deals with KDR (Homo sapiens, UniProt P35968). The test can be described thus: KDR HTRF in vitro kinase assay. As to conditions: 1 mM ATP; read-out: KDR enzyme inhibition data (Ki). Also noted: purified enzyme (His6-KDR 789-1354, MW 63 kD); His6 (N). Format: biochemical. An outline of the steps: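 His6-KDR 789-1354 (7 ng/well) with 0.5 μM biotinylated peptide substrate and 1 mM ATP in HEPES pH 7.1, MgCl2/MnCl2, 60 min at room temperature. EDTA-quenched, detected by streptavidin-XL-665 plus Eu-kryptate anti-phosphotyrosine HTRF after 3 h; IC50 from 620/665 nm ratio.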
On the technique in general: In TR-FRET formats the signal depends on donor and acceptor labels being close together.

pKi: −log10 of the molar value.

A word on the pKi: it is −log10 of the Ki, conventionally taken in molar units.

Chain of KDR (P35968 789-1354): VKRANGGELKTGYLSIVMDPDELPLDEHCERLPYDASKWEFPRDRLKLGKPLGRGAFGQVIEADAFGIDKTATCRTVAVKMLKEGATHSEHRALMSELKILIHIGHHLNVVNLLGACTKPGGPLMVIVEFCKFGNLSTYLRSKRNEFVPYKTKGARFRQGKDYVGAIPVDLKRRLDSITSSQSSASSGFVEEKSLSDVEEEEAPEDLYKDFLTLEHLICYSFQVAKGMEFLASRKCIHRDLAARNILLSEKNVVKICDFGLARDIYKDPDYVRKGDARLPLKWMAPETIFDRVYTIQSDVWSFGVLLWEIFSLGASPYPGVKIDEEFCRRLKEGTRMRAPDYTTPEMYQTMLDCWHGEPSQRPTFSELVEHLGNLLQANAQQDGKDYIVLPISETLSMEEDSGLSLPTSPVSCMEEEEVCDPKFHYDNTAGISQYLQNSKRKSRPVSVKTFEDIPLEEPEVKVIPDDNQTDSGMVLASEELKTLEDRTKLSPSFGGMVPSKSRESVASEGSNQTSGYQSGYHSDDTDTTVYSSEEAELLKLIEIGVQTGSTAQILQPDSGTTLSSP

Consider `NC(=O)[C@@H]1[C@H](Nc2nc(Nc3cnn(CCc4cccc(Cl)c4)c3)ncc2Cl)[C@H]2C=C[C@@H]1C2` [Example 158, (1S,2S,3R,4R)-3-{[5-chloro-2-({1-[2-(3-chlorophenyl)ethyl]-1H-pyrazol-4-yl}amino)pyrimidin-4-yl]amino}bicyclo[2.2.1]hept-5-ene-2-carboxamide], for which the EC15 in the test with NCI-H1299 cells is under 100 nM. In addition, at KDR, the pKi was over 7.00.

With `Cc1cccc(Cn2cc(Nc3ncc(Cl)c(N[C@H]4[C@@H](C(N)=O)[C@@H]5C=C[C@H]4C5)n3)cn2)c1` [Example 178, (1S,2S,3R,4R)-3-[(5-chloro-2-{[1-(3-methylbenzyl)-1H-pyrazol-4-yl]amino}pyrimidin-4-yl)amino]bicyclo[2.2.1]hept-5-ene-2-carboxamide], the EC15 in the test on NCI-H1299 cells is under 100 nM. Also, the pKi on KDR was over 7.00.

As to `Cn1cc(Nc2ncc(C(F)(F)F)c(Nc3ccccc3C3(O)CNC3)n2)cn1` [Example 109, 3-[2-({2-[(1-methyl-1H-pyrazol-4-yl)amino]-5-(trifluoromethyl)pyrimidin-4-yl}amino)phenyl]azetidin-3-ol], the EC15 with NCI-H1299 cells is under 100 nM. The pKi at KDR was over 7.00.

`NC(=O)[C@@H]1[C@H](Nc2nc(Nc3cnn(Cc4ccc5ccccc5c4)c3)ncc2Cl)[C@H]2C=C[C@@H]1C2` [Example 179, (1S,2S,3R,4R)-3-[(5-chloro-2-{[1-(2-naphthylmethyl)-1H-pyrazol-4-yl]amino}pyrimidin-4-yl)amino]bicyclo[2.2.1]hept-5-ene-2-carboxamide]: the EC15 in the test on NCI-H1299 cells is under 100 nM. Also, the pKi at KDR was over 7.00.

In the case of `NC(=O)[C@@H]1[C@H](Nc2nc(Nc3cnn(Cc4ccc(Cl)cc4)c3)ncc2Cl)[C@H]2C=C[C@@H]1C2` [Example 162, (1S,2S,3R,4R)-3-[(5-chloro-2-{[1-(4-chlorobenzyl)-1H-pyrazol-4-yl]amino}pyrimidin-4-yl)amino]bicyclo[2.2.1]hept-5-ene-2-carboxamide], in the test with NCI-H1299 cells, the EC15 was under 100 nM. In addition, on KDR, the pKi is over 7.00.

Take `Cn1cc(Nc2ncc(Cl)c(N[C@@H]3[C@H](C(N)=O)[C@H]4CC[C@@H]3O4)n2)cn1.Cn1cc(Nc2ncc(Cl)c(N[C@H]3[C@@H](C(N)=O)[C@@H]4CC[C@H]3O4)n2)cn1` (mixture of isomers) [Example 141, (1S,2R,3S,4R)-3-({5-chloro-2-[(1-methyl-1H-pyrazol-4-yl)amino]pyrimidin-4-yl}amino)-7-oxabicyclo[2.2.1]heptane-2-carboxamide and (1R,2S,3R,4S)-3-({5-chloro-2-[(1-methyl-1H-pyrazol-4-yl)amino]pyrimidin-4-yl}amino)-7-oxabicyclo[2.2.1]heptane-2-carboxamide]: the “EC15 (concentration of inhibitor necessary to induce polyploidy in 15% of cells)” value in the test on NCI-H1299 cells was “B (“B” represents an EC15 of between 0.1 μM and 1 μM)”. Moreover, on KDR, the pKi is over 7.00.

In the case of `CC(C)n1cc(Nc2ncc(Cl)c(N[C@H]3[C@@H](C(N)=O)[C@@H]4C=C[C@H]3C4)n2)cn1` [Example 98, (1S,2S,3R,4R)-3-({5-chloro-2-[(1-isopropyl-1H-pyrazol-4-yl)amino]pyrimidin-4-yl}amino)bicyclo[2.2.1]hept-5-ene-2-carboxamide], in the test with NCI-H1299 cells, the EC15 is under 100 nM. Further, at KDR, the pKi is over 7.00.

Consider `Cn1cc(Nc2ncc(Cl)c(N[C@@H]3CC[C@@H]3C(N)=O)n2)cn1.Cn1cc(Nc2ncc(Cl)c(N[C@H]3CC[C@H]3C(N)=O)n2)cn1` (mixture of isomers) [Example 151, (1S,2R)-2-({5-chloro-2-[(1-methyl-1H-pyrazol-4-yl)amino]pyrimidin-4-yl}amino)cyclobutanecarboxamide and (1R,2S)-2-({5-chloro-2-[(1-methyl-1H-pyrazol-4-yl)amino]pyrimidin-4-yl}amino)cyclobutanecarboxamide], for which the “EC15 (concentration of inhibitor necessary to induce polyploidy in 15% of cells)” value in the test with NCI-H1299 cells is reported as “A (“A” represents an EC15 of less than 0.1 μM)”. At KDR, the pKi is over 7.00.

Regarding `NC(=O)[C@@H]1[C@H](Nc2nc(Nc3cnn([C@H]4CCOC4)c3)ncc2Cl)[C@H]2C=C[C@@H]1C2` [Example 108, (1S,2S,3R,4R)-3-{[5-chloro-2-({1-[(3S)-tetrahydrofuran-3-yl]-1H-pyrazol-4-yl}amino)pyrimidin-4-yl]amino}bicyclo[2.2.1]hept-5-ene-2-carboxamide], in the test with NCI-H1299 cells, the EC15 was under 100 nM. Further, at KDR, the pKi was over 7.00.

Regarding `NC(=O)[C@@H]1[C@H](Nc2nc(Nc3cnn(Cc4ccc(Cl)cc4)c3)ncc2Br)[C@H]2C=C[C@@H]1C2` [Example 172, (1S,2S,3R,4R)-3-[(5-bromo-2-{[1-(4-chlorobenzyl)-1H-pyrazol-4-yl]amino}pyrimidin-4-yl)amino]bicyclo[2.2.1]hept-5-ene-2-carboxamide], the EC15 in the test on NCI-H1299 cells is under 100 nM. For the same compound, the pKi at KDR is over 7.00.

For `NC(=O)[C@@H]1[C@H](Nc2nc(Nc3cnn(Cc4cccc(Cl)c4)c3)ncc2Cl)[C@H]2C=C[C@@H]1C2` [Example 157, (1S,2S,3R,4R)-3-[(5-chloro-2-{[1-(3-chlorobenzyl)-1H-pyrazol-4-yl]amino}pyrimidin-4-yl)amino]bicyclo[2.2.1]hept-5-ene-2-carboxamide], the EC15 in the test on NCI-H1299 cells is under 100 nM. Besides, on KDR, the pKi is over 7.00.

With `CC(=O)N1CCC(n2cc(Nc3ncc(Cl)c(N[C@H]4[C@@H](C(N)=O)[C@@H]5C=C[C@H]4C5)n3)cn2)CC1` [Example 92, (1S,2S,3R,4R)-3-[(2-{[1-(1-acetylpiperidin-4-yl)-1H-pyrazol-4-yl]amino}-5-chloropyrimidin-4-yl)amino]bicyclo[2.2.1]hept-5-ene-2-carboxamide], the EC15 in the test on NCI-H1299 cells was under 100 nM. Further, on KDR, the pKi is over 7.00.

`Cn1cc(Nc2ncc(Cl)c(N[C@@H]3[C@@H]4CC[C@@H](C4)[C@@H]3C(N)=O)n2)cn1.Cn1cc(Nc2ncc(Cl)c(N[C@H]3[C@H]4CC[C@H](C4)[C@H]3C(N)=O)n2)cn1` (mixture of isomers) [Example 113, (1R,2R,3S,4S)-3-({5-chloro-2-[(1-methyl-1H-pyrazol-4-yl)amino]pyrimidin-4-yl}amino)bicyclo[2.2.1]heptane-2-carboxamide and (1S,2S,3R,4R)-3-({5-chloro-2-[(1-methyl-1H-pyrazol-4-yl)amino]pyrimidin-4-yl}amino)bicyclo[2.2.1]heptane-2-carboxamide]: in the test on NCI-H1299 cells, the “EC15 (concentration of inhibitor necessary to induce polyploidy in 15% of cells)” value is recorded as “A (“A” represents an EC15 of less than 0.1 μM)”. Moreover, at KDR, the pKi is over 7.00.

As to `NC(=O)[C@@H]1[C@H](Nc2nc(Nc3cnn(C4CCC4)c3)ncc2Cl)[C@H]2C=C[C@@H]1C2` [Example 118, (1S,2S,3R,4R)-3-({5-chloro-2-[(1-cyclobutyl-1H-pyrazol-4-yl)amino]pyrimidin-4-yl}amino)bicyclo[2.2.1]hept-5-ene-2-carboxamide], in the test on NCI-H1299 cells, the EC15 is under 100 nM. In addition, the pKi on KDR is over 7.00.

Consider `NC(=O)[C@H]1[C@@H]2CC[C@@H](C2)[C@H]1Nc1nc(Nc2cnn(CCO)c2)ncc1Cl` [Example 93, (1R,2S,3R,4S)-3-[(5-chloro-2-{[1-(2-hydroxyethyl)-1H-pyrazol-4-yl]amino}pyrimidin-4-yl)amino]bicyclo[2.2.1]heptane-2-carboxamide], for which, in the test with NCI-H1299 cells, the EC15 was under 100 nM. The pKi at KDR is over 7.00.
